In US20100310450A1, “METHOD OF DIAGNOSIS AND AGENTS USEFUL FOR SAME” (MEDVET SCIENCE PTY. LTD., priority 2006, published 2010):

Tests used:
[1] = system: apoptotic Jurkat cells; assay: Inhibition by the TG2 inhibitor MDC of protein crosslinking and 3B9 binding in cisplatin-treated Jurkat cells; assay type: cell-based, human; details: 20 μg/mL cisplatin
Experimental: FIG. 18 depicts that La antigen is crosslinked during apoptosis. (A) Jurkat cells incubated in 20 μg/mL cisplatin were removed at specified time points and incubated for 10 min. in 1% Triton X-100 solution before 3B9 binding analysis. Data are presented as density plots of staining with 3B9 vs. 7-AAD. (B) Immunoblots of cell lysates of control and cisplatin-treated Jurkat cells were probed with 3B9 for expression of La (top panels) or actin as a loading control (bottom panels) at specified times. (C) Jurkat cells incubated in the absence or presence of increasing concentrations of cisplatin were labeled with cadaverine-biotin added at 100 μM for 48 h. Cells were stained with strepatavidin-Alexa488 and analyzed by flow cytometry. Data shown are MFI±SEM (n=3). […] Cells were analyzed at specified times (24 □, 48 ? and 72 h ▪) for sulforhodamine 101 staining. […]
Transglutaminase 2 (TG2)-mediated protein-protein crosslinking in apoptotic cells was investigated using a modification of a previously described method. […] Samples were vortexed and incubated for 5 min. before analysis by flow cytometry where fluorescence from Sytox Green and sulforhodamine were detected using FL-1 and FL-3, respectively. The degree of crosslinking in apoptotic cells was calculated as the ratio of the MFI of sulforhodamine staining in apoptotic cells to the MFI in control cells (protein crosslinking ratio). […]

[2] = system: PANC-1 cells; assay: MTS proliferation assay with TSA and gemcitabine; assay type: cell-based, human; details: TSA alone
Experimental: FIG. 40 depicts that gemcitabine and TSA synergise to reduce proliferation rates among PANC-1 cells in vitro. PANC-1 cells (2×10^4 cells) were seeded in flat bottom 96-well plates overnight using phenol-free RPMI-1640 medium containing 10% FCS (medium). A serial dilution of 2×10^4 cells was used to construct a standard curve for the MTS assay. Triplicate wells were incubated with increasing concentrations of TSA (nM) with or without the addition of increasing concentrations of gemcitabine. Three identical plates were incubated for 24, 48 or 72 h then medium was decanted and fresh medium (100 μL) containing 20 μL MTS/PMS substrate was added to all wells. Assays were performed according to the manufacturer's instructions. The change in the absorbance reading over time was calculated for each condition in units of change per 12 h (upper panel), which was converted to units of cell number change per 12 h (lower panel) using a standard curve of the absorbance reading as a function of […] (r^2=0.99).

[3] = system: PANC-1 cells; assay: Cell death (7-AAD) and 3B9-specific binding after gemcitabine and TSA; assay type: cell-based, human; details: TSA alone; data not shown
Experimental: FIG. 15 depicts that 3B9 binding to dead PANC-1 cells is augmented after combination treatment with gemcitabine and TSA produced additive cytotoxicity and DNA-damaging effects. PANC-1 cells were incubated with increasing concentrations of gemcitabine in the absence (clear columns) or presence of 100 ng/mL (hatched columns) or 200 ng/mL (filled columns) of TSA. Analysis was done for viability using 7-AAD (A), 3B9-specific binding (B) and DNA damage using γH2AX staining (C). Data are presented as mean±SEM from three independent experiments. Photomicrographs show PANC-1 cells treated with gemcitabine and TSA (+) or not (−), which were stained with γH2AX-specific mAb and 7-AAD (D).
PANC-1 cells (2×10^4 cells) were seeded in flat bottom 96-well plates overnight using phenol-free RPMI-1640 medium containing 10% FCS (medium). Cells were incubated with the specified concentrations of gemcitabine or TSA singly or in combination. Cells were collected (from media and EDTA detached adherent cells) and subjected to indirect immunofluorescence staining with Apomab or its Sal5 isotype control mAb and assessed for viability with 7-AAD staining. […]
(§1) Apoptosis or cell death was induced by adding cytotoxic drugs to culture media at the specified concentrations. […] Control (untreated) cells had ≧90% viability determined by PI or trypan blue staining (data not shown). […]

[4] = system: Jurkat cells; assay: Apomab-specific binding to cisplatin-treated Jurkat cells with TSA; assay type: cell-based, human; details: TSA added to 10 μg/mL cisplatin, 48 h
Experimental: FIG. 36 depicts that the histone deacetylase inhibitor (HDACi) trichostatin A (TSA) exerts dose-dependent synergy with cisplatin to augment Apomab-specific binding to dead Jurkat cells. Jurkat cells were incubated for 48 h with 10 μg/mL cisplatin together with increasing concentrations of TSA. Cells were subjected to indirect immunofluorescence staining using Apomab or its Sal5 isotype control mAb and viability was assessed using 7-AAD. Apomab-specific binding was calculated as the Net MFI after gating on 7-AAD^+ events. Data are presented as the mean±SEM from two separate experiments. (A) Apomab-specific binding to cisplatin-treated Jurkat cells is plotted as a function of TSA concentration. […]
as §1
Indirect immunofluorescence staining was performed using purified mouse antibodies at 5 μg/mL for 30 min. at room temperature (RT) in PBS followed by Alexa488-conjugated anti-mouse IgG at 2 μg/mL for 30 min. at RT in PBS. […] Cell viability was assessed by the exclusion of PI (0.5 μg/mL) and detected using the FL-2 channel (585 nm filter) or by the exclusion of 7-AAD (2 μg/mL for 15 min. at RT) and detected using the FL-3 channel (>650 nm filter). […]

[5] = system: Raji; assay: Binding of La-specific mAb (3B9-FITC) to apoptotic human cancer cell lines, dual-colour flow cytometry; details: 2 μM staurosporine, 20 μg/mL etoposide or 0.1 μg/mL vincristine, 3B9-FITC and PI

CN(C)c1cccc2c(S(=O)(=O)NCCCCCN)cccc12 [MDC, monodansylcadaverine]
effect on protein crosslinking (sulforhodamine crosslinking ratio) [1]: dose-dependent inhibitory effect

CC(/C=C/C(=O)NO)=C\[C@@H](C)C(=O)c1ccc(N(C)C)cc1 [TSA, trichostatin A]
effect on proliferation of PANC-1 cells [2]: inhibited proliferation
3B9 binding in comparison with control PANC-1 cells [3]: did not alter 3B9 binding
Apomab-specific binding to dead Jurkat cells [4]: dose-dependent increase

CC[C@]1(O)C[C@H]2CN(CCc3c([nH]c4ccccc34)[C@@](C(=O)OC)(c3cc4c(cc3OC)N(C=O)[C@H]3[C@@](O)(C(=O)OC)[C@H](OC(C)=O)[C@]5(CC)C=CCN6CC[C@]43[C@@H]65)C2)C1 [Vincristine, vincristine]
percentages of PI+ and 3B9+ events after subtraction of control (PI+ and Sal5+) events [5]: 9.8%
